In one assay the test system is IL-23 (p19/p40). Put plainly: IL23-p19 ELISA, Dendritic, LPS (compound screening using DC cells). The format is cell-based, Human. The method, boiled down: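 Human PBMC-derived dendritic cells (7 d GM-CSF 100 ng/ml + IL-4 20 ng/ml), primed 24 h with IFNγ 50 ng/ml, pre-incubated 1 h with compound, then stimulated 18 h with LPS 1 μg/ml. Supernatant IL-23 measured by p19-capture/p40-detection chemiluminescent ELISA; CellTiter Glo checks cytotoxicity.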

Another assay has as its system IL-23p19. Put plainly: LPS induced IL23p19 in THP-1 cells (with IFNγ primed) assay. The class given is cell-based, Human. The method, boiled down: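 THP-1 cells primed ~18 h with IFNγ (50 ng/mL), pre-incubated 1 h with compound at 37 °C, then stimulated 18 h with LPS (1 ug/mL final). Supernatant IL-23p19 measured by sandwich ELISA with chemiluminescent read-out; EC50 from curve fitting. Toxicity checked on the remaining cells by Cell Titer Glo.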

The mark [1] stands for this setting: Homo sapiens, 18 h, PBMC-derived DC cells, IFNγ primed, LPS 1 μg/ml, 18 hours, 10 pt, read-out: IL23-p19 ELISA, Dendritic, LPS, 10 pt, EC50.
The mark [2] stands for this setting: Homo sapiens, THP-1, 18 h, THP-1 cells, IFNγ primed, LPS 1 ug/mL, 18 hours, 10 pt, read-out: IL23-p19 ELISA, THP1-IFNy, LPS, 10 pt EC50.
[3] abbreviates: PBMC-derived DC cells, IFNγ primed, LPS 1 μg/ml, 18 hours, 10 pt, read-out: IL23-p19 ELISA, Dendritic, LPS, 10 pt, EC50.
[4] abbreviates: THP-1 cells, IFNγ primed, LPS 1 ug/mL, 18 hours, 10 pt, read-out: IL23-p19 ELISA, THP1-IFNy, LPS, 10 pt EC50.

Structures can show the parent of a compound that is named as a salt. Where two headings read alike, the source gives them in different places.

In general, EC50 refers to the concentration at which the effect is half-maximal. With `CCO[C@H]1C[C@@H](n2cc(NC(=O)c3csc(-c4cnn(C)c4)n3)c(-c3ccccn3)n2)C1` [II-13, N-(1-((1,3-cis)-3-ethoxycyclobutyl)-3-(pyridin-2-yl)-1H-pyrazol-4-yl)-2-(1-methyl-1H-pyrazol-4-yl)thiazole-4-carboxamide], the results for the EC50 in the assay with IL-23 (p19/p40) (setting [1]) and in the assay on IL-23p19 (setting [2]) were 10.4 µM and 4.8 µM, respectively.
Take `O=C(Nc1cn([C@H]2C[C@@H](O)C2)nc1-c1ccccn1)c1csc(-c2cn[nH]c2)n1` [II-14, N-(1-((1,3-cis)-3-hydroxycyclobutyl)-3-(pyridin-2-yl)-1H-pyrazol-4-yl)-2-(1H-pyrazol-4-yl)thiazole-4-carboxamide]: the concentration for a half-maximal effect (EC50) in the assay on IL-23 (p19/p40) (setting [1]) is 0.0057 µM; in the assay on IL-23p19 (setting [2]) it was 0.0434 µM.
Taken in the same sequence, the figures for `CN(C)[C@H]1C[C@@H](n2cc(NC(=O)c3csc(-c4cn[nH]c4)n3)c(-c3ccccn3)n2)C1` [II-15, N-(1-((1s,3s)-3-(dimethylamino)cyclobutyl)-3-(pyridin-2-yl)-1H-pyrazol-4-yl)-2-(1H-pyrazol-4-yl)thiazole-4-carboxamide] were 0.0096 µM and 0.0064 µM.
As to `CCO[C@H]1C[C@@H](n2cc(NC(=O)c3csc(-c4cnn(COP(=O)(O)O)c4)n3)c(-c3ccccn3)n2)C1` [II-16, (4-(4-((1-((1,3-cis)-3-ethoxycyclobutyl)-3-(pyridin-2-yl)-1H-pyrazol-4-yl)carbamoyl)thiazol-2-yl)-1H-pyrazol-1-yl)methyl phosphate bis-sodium salt], the EC50 was found to be 0.525 µM in the assay on IL-23 (p19/p40) (PBMC-derived DC cells, IFNγ primed, LPS 1 μg/ml, 18 hours, 10 pt, phosphate bis-sodium salt, read-out: IL23-p19 ELISA, Dendritic, LPS, 10 pt, EC50) and 0.121 µM in the assay with IL-23p19 (THP-1 cells, IFNγ primed, LPS 1 ug/mL, 18 hours, 10 pt, phosphate bis-sodium salt, read-out: IL23-p19 ELISA, THP1-IFNy, LPS, 10 pt EC50).
For `CCOCCn1cc(NC(=O)c2csc(-c3cn[nH]c3)n2)c(-c2ccccn2)n1` [II-18, N-(1-(2-ethoxyethyl)-3-(pyridin-2-yl)-1H-pyrazol-4-yl)-2-(1H-pyrazol-4-yl)thiazole-4-carboxamide, formic acid salt], the EC50 in the assay with IL-23 (p19/p40) (PBMC-derived DC cells, IFNγ primed, LPS 1 μg/ml, 18 hours, 10 pt, formic acid salt, read-out: IL23-p19 ELISA, Dendritic, LPS, 10 pt, EC50) came to 0.0314 µM; in the assay with IL-23p19 (THP-1 cells, IFNγ primed, LPS 1 ug/mL, 18 hours, 10 pt, formic acid salt, read-out: IL23-p19 ELISA, THP1-IFNy, LPS, 10 pt EC50), 0.301 µM.
Turning to `CCOCCn1cc(NC(=O)c2csc(-c3cn[nH]c3C(F)(F)F)n2)c(-c2ccccn2)n1` [II-19, N-(1-(2-ethoxyethyl)-3-(pyridin-2-yl)-1H-pyrazol-4-yl)-2-(5-(trifluoromethyl)-1H-pyrazol-4-yl)thiazole-4-carboxamide, formic acid salt], the EC50 with IL-23 (p19/p40) (setting [1]) was determined as 3.51 µM; in the assay with IL-23p19 (setting [2]) it was 4.01 µM.
The matching figures for `CCOCCn1cc(NC(=O)c2csc(-c3c[nH]nc3C)n2)c(-c2ccccn2)n1` [II-21, N-(1-(2-ethoxyethyl)-3-(pyridin-2-yl)-1H-pyrazol-4-yl)-2-(3-methyl-1H-pyrazol-4-yl)thiazole-4-carboxamide, formic acid salt]: 0.569 µM and 0.315 µM.
On to `CCOCCn1cc(NC(=O)c2csc(-c3c(C)n[nH]c3C)n2)c(-c2ccccn2)n1` [II-23, 2-(3,5-dimethyl-1H-pyrazol-4-yl)-N-(1-(2-ethoxyethyl)-3-(pyridin-2-yl)-1H-pyrazol-4-yl)thiazole-4-carboxamide, formic acid salt], for which the EC50 in the assay with IL-23 (p19/p40) (setting [1]) turned out to be 16.3 µM; in the assay on IL-23p19 (setting [2]), 4.76 µM.
For `CCOCCn1cc(NC(=O)c2csc(-c3cn[nH]c3)n2)c(-c2ccccn2)n1` [II-25, N-(1-(2-ethoxyethyl)-3-(pyridin-2-yl)-1H-pyrazol-4-yl)-2-(1H-pyrazol-4-yl)thiazole-4-carboxamide], the EC50 with IL-23 (p19/p40) (setting [3]) came to 0.17 µM; in the assay with IL-23p19 (setting [4]), 0.146 µM.
`Cn1cc(NC(=O)c2csc(-c3cn[nH]c3)n2)c(-c2ccccn2)n1` [II-26, N-(1-methyl-3-(pyridin-2-yl)-1H-pyrazol-4-yl)-2-(1H-pyrazol-4-yl)thiazole-4-carboxamide]: the values for the EC50 with IL-23 (p19/p40) (setting [1]) and in the assay on IL-23p19 (setting [2]) were 0.113 µM and 0.0771 µM, respectively.
Take `Cc1n[nH]cc1-c1nc(C(=O)Nc2cn(C)nc2-c2ccccn2)cs1` [II-27, 2-(3-methyl-1H-pyrazol-4-yl)-N-(1-methyl-3-(pyridin-2-yl)-1H-pyrazol-4-yl)thiazole-4-carboxamide]: the EC50 with IL-23 (p19/p40) (setting [1]) amounted to 0.331 µM; in the assay on IL-23p19 (setting [2]), 0.0741 µM.
Regarding `COCCn1cc(NC(=O)c2csc(-c3cn[nH]c3)n2)c(-c2ccccn2)n1` [II-28, N-(1-(2-methoxyethyl)-3-(pyridin-2-yl)-1H-pyrazol-4-yl)-2-(1H-pyrazol-4-yl)thiazole-4-carboxamide], the concentration giving a half-maximal response (EC50) came out at 0.063 µM in the assay on IL-23 (p19/p40) (setting [1]) and 0.276 µM in the assay with IL-23p19 (setting [2]).
For the compound `COCCn1cc(NC(=O)c2csc(-c3c[nH]nc3C)n2)c(-c2ccccn2)n1` [II-29, N-(1-(2-methoxyethyl)-3-(pyridin-2-yl)-1H-pyrazol-4-yl)-2-(3-methyl-1H-pyrazol-4-yl)thiazole-4-carboxamide, formic acid salt], the EC50 in the assay on IL-23 (p19/p40) (setting [1]) turned out to be 0.248 µM; in the assay on IL-23p19 (setting [2]), 0.135 µM.
For `CCOCCn1cc(NC(=O)c2csc(-c3c[nH]nc3C)n2)c(-c2ccccn2)n1` [II-31, N-(1-(2-ethoxyethyl)-3-(pyridin-2-yl)-1H-pyrazol-4-yl)-2-(3-methyl-1H-pyrazol-4-yl)thiazole-4-carboxamide], the EC50 is 0.799 µM in the assay on IL-23 (p19/p40) (setting [3]) and 0.17 µM in the assay with IL-23p19 (setting [4]).
As to `O=C(Nc1c[nH]nc1-c1ccccn1)c1csc(-c2cn[nH]c2)n1` [II-32, 2-(1H-pyrazol-4-yl)-N-(3-(pyridin-2-yl)-1H-pyrazol-4-yl)thiazole-4-carboxamide formic acid salt], the EC50 in the assay on IL-23 (p19/p40) (setting [1]) was 0.191 µM; in the assay with IL-23p19 (setting [2]), 0.361 µM.
Consider `O=C(Nc1cn(C2COC2)nc1-c1ccccn1)c1csc(-c2cn[nH]c2)n1` [II-34, N-(1-(oxetan-3-yl)-3-(pyridin-2-yl)-1H-pyrazol-4-yl)-2-(1H-pyrazol-4-yl)thiazole-4-carboxamide], for which the EC50 with IL-23 (p19/p40) (setting [1]) came out at 0.0557 µM; with IL-23p19 (setting [2]), 0.0861 µM.
For `Cn1cc(NC(=O)c2csc(-c3cnn(COP(=O)(O)O)c3)n2)c(-c2ccccn2)n1` [II-35, (4-(4-((1-methyl-3-(pyridin-2-yl)-1H-pyrazol-4-yl)carbamoyl)thiazol-2-yl)-1H-pyrazol-1-yl)methyl dihydrogen phosphate], the values for the EC50 in the assay with IL-23 (p19/p40) (setting [1]) and in the assay with IL-23p19 (setting [2]) were 0.292 µM and 0.206 µM, respectively.
For the compound `Cn1cc(NC(=O)c2csc(-c3cnn(COP(=O)(O)O)c3)n2)c(-c2ccccn2)n1` [II-36, Sodium (4-(4-((1-methyl-3-(pyridin-2-yl)-1H-pyrazol-4-yl)carbamoyl)thiazol-2-yl)-1H-pyrazol-1-yl)methyl phosphate], the half-maximal effective concentration (EC50) with IL-23 (p19/p40) (PBMC-derived DC cells, IFNγ primed, LPS 1 μg/ml, 18 hours, 10 pt, phosphate, read-out: IL23-p19 ELISA, Dendritic, LPS, 10 pt, EC50) came out at 0.241 µM; in the assay with IL-23p19 (THP-1 cells, IFNγ primed, LPS 1 ug/mL, 18 hours, 10 pt, phosphate, read-out: IL23-p19 ELISA, THP1-IFNy, LPS, 10 pt EC50), 0.165 µM.
`COCCOCCn1cc(NC(=O)c2csc(-c3cn[nH]c3)n2)c(-c2ccccn2)n1` [II-37, N-(1-(2-(2-methoxyethoxy)ethyl)-3-(pyridin-2-yl)-1H-pyrazol-4-yl)-2-(1H-pyrazol-4-yl)thiazole-4-carboxamide]: the EC50 came to 0.193 µM with IL-23 (p19/p40) (setting [1]) and 0.129 µM in the assay on IL-23p19 (setting [2]).
Regarding `Cn1cc(NC(=O)c2csc(-c3cnn(COP(=O)(O)O)c3)n2)c(-c2ccccn2)n1` [II-38, Potassium (4-(4-((1-methyl-3-(pyridin-2-yl)-1H-pyrazol-4-yl)carbamoyl)thiazol-2-yl)-1H-pyrazol-1-yl)methyl phosphate], the EC50 stood at 0.771 µM with IL-23 (p19/p40) (Homo sapiens, 18 h, read-out: IL23-p19 ELISA, Dendritic, LPS, 10 pt, EC50 (μM)) and 0.505 µM in the assay with IL-23p19 (Homo sapiens, THP-1, 18 h, read-out: IL23-p19 ELISA, THP1-IFNy, LPS, 10 pt EC50 (μM)).
As for `COCCOCCn1cc(NC(=O)c2csc(-c3c[nH]nc3C)n2)c(-c2ccccn2)n1` [II-39, N-(1-(2-(2-methoxyethoxy)ethyl)-3-(pyridin-2-yl)-1H-pyrazol-4-yl)-2-(3-methyl-1H-pyrazol-4-yl)thiazole-4-carboxamide], the figures for the EC50 with IL-23 (p19/p40) (setting [1]) and with IL-23p19 (setting [2]) were 0.178 µM and 0.167 µM, respectively.
`Cc1n[nH]cc1-c1nc(C(=O)Nc2cn(C3COC3)nc2-c2ccccn2)cs1` [II-41, 2-(3-methyl-1H-pyrazol-4-yl)-N-(1-(oxetan-3-yl)-3-(pyridin-2-yl)-1H-pyrazol-4-yl)thiazole-4-carboxamide, formic acid salt]: the EC50 in the assay on IL-23 (p19/p40) (setting [1]) amounted to 0.0188 µM; in the assay on IL-23p19 (setting [2]), 0.0413 µM.
For `O=C(Nc1cn(C2CCOC2)nc1-c1ccccn1)c1csc(-c2cn[nH]c2)n1` (stereo not shown) [II-43, 2-(1H-pyrazol-4-yl)-N-(3-(pyridin-2-yl)-1-(tetrahydrofuran-3-yl)-1H-pyrazol-4-yl)thiazole-4-carboxamide formic acid salt], the EC50 was determined as 0.0502 µM in the assay on IL-23 (p19/p40) (setting [1]) and 0.0278 µM in the assay with IL-23p19 (setting [2]).

(Values after patent publication US10208074B2, “Pyrazole compounds and method for making and using the compounds” (Rigel Pharmaceuticals, Inc., priority 2015, dated 2019).)
